Series [1] deals with TEV protease, Endoproteinase AspN, Endoproteinase GluC. To be noted: many other proteases (TEV protease 37 °C, Endoproteinase AspN and GluC 30 °C), 32 μg/mL, 100:1 (w:w), 4 h, 8 h, 12 h, UPLC-LRMS. The protocol:
(§1) Protease stability of massatide A
(§2) We selected TEV protease, Endoproteinase AspN, Endoproteinase GluC, trypsin, and chymotrypsin to evaluate the stability of massatide A. The protease digestion assay was conducted as follows: (i) Stock solution of massatide A (3.2 mg/mL in DMSO) was diluted in H2O with final concentration of 32 μg/mL, (ii) each protease was added with 100:1 (w:w) ratio and incubated under corresponding temperature, i.e., 37 °C for TEV protease, trypsin, and chymotrypsin and 30 °C for Endoproteinase AspN and […]
(§3) Endoproteinase GluC. […]

The subject of series [2] is trypsin. The note with it: 32 μg/mL in H2O, protease 100:1 (w:w), 37 °C, 4 h, 8 h and 12 h, UPLC-LRMS. The procedure: as §1, §2, §3
For series [3] the following is noted: 300 μl of water added to 0.9 mg solid; visual, not quantitative.
Series [4] relates to chymotrypsin. The note with it: 32 μg/mL in H2O, protease 100:1 (w:w), 37 °C, 4 h, 8 h and 12 h, UPLC-LRMS. The protocol:
as §1, §2, §3
(§4) 1 μ L samples were taken and diluted with water for UPLC -LRMS analysis. […]

In series [5] the test system is Enterococcus faecalis OG1RF. In words: microbe, parasite or virus in culture. It is filed as cell-based. To be noted: OG1RF, 20 h. Summed up:
(§5)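 Broth microdilution in MHB with two-fold compound series, 37 °C for 20 h; growth read by OD600 to give MIC. Clinical isolates tested externally by a similar protocol.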

The test system of series [6] is Bacillus subtilis 168. As to the kind of experiment: microbe, parasite or virus in culture. It is filed as cell-based. The note with it: 168, 20 h.
Series [7] deals with Enterococcus faecium MCC2763. In words: microbe, parasite or virus in culture. It is filed as cell-based. The note with it: MCC2763, 20 h. The essentials: (§6)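 Broth microdilution in MHB, run for these clinical isolates by an external lab with a similar protocol: twofold dilutions (16–0.0313 μg/mL for massatides; 64–0.125 μg/mL for sistertide A1, kebanetides), 37 °C for 20 h, growth read as OD600 to give the MIC. Levofloxacin served as positive control.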

In series [8] the test system is Acinetobacter baumannii 20-1. As to the kind of experiment: microbe, parasite or virus in culture. It is filed as cell-based. The note with it: 20-1, 20 h. The essentials: as §6
Series [9] deals with Staphylococcus aureus ATCC25923. As to the kind of experiment: microbe, parasite or virus in culture. It is filed as cell-based. To be noted: ATCC25923, 20 h. The essentials: as §5
The subject of series [10] is Klebsiella pneumoniae ATCC700603. As to the kind of experiment: microbe, parasite or virus in culture. It is filed as cell-based. The note with it: ATCC700603, 20 h. Summed up:
as §6

For series [11], the system named is Enterococcus faecalis 19-1. As to the kind of experiment: microbe, parasite or virus in culture. To be noted: 19-1, 20 h. It is filed as cell-based. The essentials: as §6
The subject of series [12] is Acinetobacter baumannii 20-2. As to the kind of experiment: microbe, parasite or virus in culture. It is filed as cell-based. To be noted: 20-2, 20 h. Summed up: as §6
Series [13] concerns Micrococcus luteus DSM1790. In words: microbe, parasite or virus in culture. It is filed as cell-based. To be noted: DSM1790, 20 h.
For series [14], the system named is Klebsiella pneumoniae 15-1. In words: microbe, parasite or virus in culture. It is filed as cell-based. To be noted: 15-1, 20 h. The essentials: as §6
Series [15] relates to LREfa 20-1. As to the kind of experiment: microbe, parasite or virus in culture. It is filed as cell-based, Enterococcus faecalis. To be noted: 20 h. The procedure: (§7) For MIC determination, Staphylococcus aureus ATCC25923, Bacillus subtilis 168, Micrococcus luteus DSM1790, Enterococcus faecalis OG1RF, Enterococcus faecium MCC2763, Escherichia coli DH5α and Pseudomonas aeruginosa PAO1 were used as indicator strains. Nisin and vancomycin were used as positive controls. A dilution series of massatide A, massatide B, vancomycin (16, 8, 4, 2, 1, 0.5, 0.25, 0.125, 0.0625, 0.0313 μg/mL) and sistertide A1, kebanetide A1, kebanetide A2, nisin (64, 32, 16, 8, 4, 2, 1, 0.5, 0.25, 0.125 μg/mL) were prepared in 96-well plate from 1–10th column. The indicator strains were added to the compound-containing well. The indicator strain culture with no antibiotics was prepared in the 11th column. The 12th column was filled with 200 μL empty MHB medium. The 96-well plate was incubated at 37 °C for 20 h (30 °C for M. luteus and B. subtilis). The OD600 was detected on MULTISKAN Sky (Thermo Scientific) and MIC values were determined. The MIC values of clinical isolates were determined by Sichuan Primed Shines Bio-tech Co., Ltd. (China) following similar protocol. Levofloxacin was used as a positive control.

In series [16] the test system is VREfa ATCC51575. In words: microbe, parasite or virus in culture. It is filed as cell-based, Enterococcus faecalis. The note with it: ATCC51575, 20 h. The procedure: as §7
Series [17] in a line: Thermal stability of massatide A. The procedure: Thermal stability of massatide A
A solution of Massatide A (3.2 mg/mL) was prepared in 1.5 mL Eppendorf tube. These
tubes were then incubated at 50 °C and 70 °C in a dry bath for 72 hours. After incubation,
as §4

Series [18] relates to S. aureus ATCC259923. In words: UDP-N-acetyl-muramic acid pentapeptide levels (HPLC-HRMS). It is filed as cell-based, Staphylococcus aureus. The note with it: S. aureus treated with or without massatide A, comparative HPLC-HRMS, preliminary unpublished data. The text has this: page 26: “Also, there is no discussion about the possible mechanism of antibacterial activity.” We have included a discussion on the proposed mode of action of […] A in the discussion section in lines 388-394 of our manuscript. “Avi(Me)Cys-containing lanthipeptides are reported to target lipid II, an essential precursor in cell wall biosynthesis. […], which shares structural similarities with cacaoidin, may potentially target lipid II or certain membrane proteins involved in peptidoglycan biosynthesis. However, a comprehensive study is necessary to fully uncover the detailed mode of action of […] A, which will be the primary focus of our ongoing research.” In our ongoing study, we have obtained some preliminary unpublished data supporting our hypothesis that […] A may inhibit cell wall biosynthesis. We assessed UDP-N-acetyl-muramic acid pentapeptide levels, an essential precursor in cell wall biosynthesis, in the S. aureus ATCC259923 strain treated with or without […] The mode of action of […] A will be further investigated in our ongoing research. […] 12. p. 16: the data that […] A1 and A2 act synergistically are not convincing - see also main comment above. […] We acknowledge the concern regarding the insufficient evidence supporting the presence of a synergistic effect in our study. As a result, we have opted to remove any conclusions relating to synergy. […]

In brackets after ≈: the same amount, converted by molar mass.

For the compound `C/C=C1\NC(=O)C(N(C)C)C(C)SC[C@@H](C(=O)N[C@H](CC)C(=O)N[C@H](C(=O)N[C@@H](C)C(=O)N[C@H](C)C(=O)N[C@@H](Cc2ccccc2)C(=O)N[C@@H](C)C(=O)NC2C(=O)NCC(=O)N[C@@H](Cc3ccc(O)cc3)C(=O)N[C@@H](Cc3ccccc3)C(=O)N[C@H](C)C(=O)N/C=C\SC2C)C(C)C)NC(=O)[C@@H]2CCCN2C(=O)[C@H](C(C)C)NC1=O` (some centres unmarked) [Massatide A (1), massatide A], the protease stability entry in series [1], in [2] and in [4] was “resistant” throughout. In [3], the “water solubility (observation)” value is recorded as “not fully dissolved”. Moreover, the MIC was 4 µg/mL (≈ 2.45 µM) in series [5]; 2 µg/mL (≈ 1.22 µM) in series [6]; 2 µg/mL (≈ 1.22 µM) in series [7]; 64 µg/mL (≈ 39.1 µM) in series [8]; 0.5 µg/mL (≈ 0.306 µM) in series [9]; above 64 µg/mL in series [10]. The MIC is 4 µg/mL (≈ 2.45 µM) in series [11]; 64 µg/mL (≈ 39.1 µM) in [12]; 0.06 µg/mL (≈ 0.0367 µM) in [13]; above 64 µg/mL in [14]; 4 µg/mL (≈ 2.45 µM) in series [15]; 4 µg/mL (≈ 2.45 µM) in series [16]. The “stability under high temperatures” value in series [17] (3.2 mg/mL, 50 °C and 70 °C, dry bath, 72 hours, UPLC-LRMS) was “highly stable”. In addition, the “changes in retention time or m/z after incubation” value in series [17] (72 h incubation under 70 ℃, 3.2 mg/mL, UPLC-LRMS) is listed as “No changes”. Also, in series [17] (time-course activity analysis, incubation at 50 ℃ and 70 ℃ up to 72 h), the “changes in bioactivity after incubation” value is “no obvious changes”. Besides, in series [18], the “UDP-N-acetyl-muramic acid pentapeptide levels” value is given as “increased levels”.

The values are drawn from paper PMC11162475, “Rule-based omics mining reveals antimicrobial macrocyclic peptides against drug-resistant clinical isolates” (Nature Communications, 2024).
